From BindingDB's records for doi:10.1016/j.bmcl.2009.02.053 (University of Warsaw, 2009)

Legend:
[1] = molecular target: T1, Eukaryotic translation initiation factor 4E (Oryctolagus cuniculus, UniProt P29338); experiment: Inhibition of eukaryotic initiation factor 4E in micrococcal nuclease-pretreated rabbit reticulocyte lysate assessed as inhibition of m7,3'-O-GpppG-capped 5'UTRbetaglob-LUC mRNA translation treated 60 mins before mRNA addition by luciferase-based luminometry
[2] = molecular target: T1, Eukaryotic translation initiation factor 4E; experiment: Inhibition of eukaryotic initiation factor 4E in micrococcal nuclease-pretreated rabbit reticulocyte lysate assessed as inhibition of m7,3'-O-GpppG-capped 5'UTRbetaglob-LUC mRNA translation by luciferase-based luminometry

T1 sequence (P29338 whole entry): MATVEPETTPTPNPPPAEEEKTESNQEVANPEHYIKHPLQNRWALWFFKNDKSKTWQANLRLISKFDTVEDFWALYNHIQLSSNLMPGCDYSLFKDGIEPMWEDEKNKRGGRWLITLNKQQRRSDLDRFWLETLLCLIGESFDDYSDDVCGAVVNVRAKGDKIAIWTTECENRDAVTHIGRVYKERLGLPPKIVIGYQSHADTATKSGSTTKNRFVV

Structure (SMILES): C[n+]1cn(C2OC(COP(=O)(S)OP(=O)(O)OP(=O)(O)O)C(O)C2O)c2nc(N)[n-]c(=O)c21 [2-amino-9-[(2R,3R,4S,5R)-3,4-dihydroxy-5-{[({[(phosphonatooxy)phosphinato]oxy}(sulfanidyl)phosphoryl)oxy]methyl}oxolan-2-yl]-7-methyl-6-oxido-9H-purin-7-ium]
- IC50 [1]: 1300 nM
- IC50 [2]: 1440 nM
